Results published in BindingDB's records for doi:10.1021/jm00033a017 (Dupont Pharmaceuticals, 1994).

Target: Prostaglandin G/H synthase 1 (Bos taurus) (UniProt O62664)
Test: Inhibitory activity against bovine seminal vesicle prostaglandin synthetase

Sequence of Prostaglandin G/H synthase 1 (Bos taurus) (O62664 whole entry, looked up): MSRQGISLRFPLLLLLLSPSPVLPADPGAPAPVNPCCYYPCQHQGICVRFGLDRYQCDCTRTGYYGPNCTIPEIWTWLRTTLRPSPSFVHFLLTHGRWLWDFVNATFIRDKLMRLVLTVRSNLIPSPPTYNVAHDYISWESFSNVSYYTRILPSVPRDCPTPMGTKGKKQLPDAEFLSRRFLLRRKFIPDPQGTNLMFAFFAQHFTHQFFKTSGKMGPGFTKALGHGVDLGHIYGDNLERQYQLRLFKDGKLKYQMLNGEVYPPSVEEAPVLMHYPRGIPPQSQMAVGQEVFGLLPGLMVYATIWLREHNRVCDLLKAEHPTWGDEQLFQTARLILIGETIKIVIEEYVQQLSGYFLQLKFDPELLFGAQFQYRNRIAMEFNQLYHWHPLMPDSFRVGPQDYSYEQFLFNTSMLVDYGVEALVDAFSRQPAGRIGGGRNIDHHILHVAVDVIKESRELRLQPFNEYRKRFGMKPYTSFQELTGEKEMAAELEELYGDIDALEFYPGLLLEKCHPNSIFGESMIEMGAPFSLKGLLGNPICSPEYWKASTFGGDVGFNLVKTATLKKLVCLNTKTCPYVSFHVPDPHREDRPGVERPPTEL

`CS(=O)(=O)c1ccc(-c2[nH]c(SC#N)cc2-c2ccc(F)cc2)cc1` [3-(4-Fluoro-phenyl)-2-(4-methanesulfonyl-phenyl)-5-thiocyanato-1H-pyrrole] showed an IC50 of 6.2 µM.
